Measurements published in US20230085307A1, “PYRIDAZINONE COMPOUND AND HERBICIDE” (NISSAN CHEMICAL CORPORATION, priority 2019, published 2023).

Tests used:
[1] = system: late watergrass; assay: Test Example 1: herbicidal activity, application before weed generation under submerged conditions (Table 16, symbol A); type: in vivo, late watergrass (Echinochloa oryzicola); settings: amount of applied herbicide 320 g/ha
Summary of the method: (§1)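 Emulsion formulation, water-diluted to set dose, was put onto the flooded surface (4 cm depth, alluvial soil) the same day weeds were sown and 2.5-leaf rice transplanted. After 3 weeks at 25-30 °C under glass, each species was rated 0 (≤5% kill) to 5 (≥90% kill).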

[2] = system: Japanese bulrush; assay: Test Example 1: herbicidal activity, application before weed generation under submerged conditions (Table 16, symbol B); type: in vivo, Japanese bulrush (Schoenoplectus juncoides); settings: amount of applied herbicide 320 g/ha
Summary of the method: as §1

[3] = system: oval-leafed pondweed; assay: Test Example 1: herbicidal activity, application before weed generation under submerged conditions (Table 16, symbol C); type: in vivo, oval-leafed pondweed (Monochoria vaginalis); settings: amount of applied herbicide 320 g/ha
Summary of the method: as §1

[4] = system: late watergrass; assay: Test Example 2: herbicidal activity, application during weed generation under submerged conditions (Table 17, symbol A); type: in vivo, late watergrass (Echinochloa oryzicola); settings: AAH 320 g/ha; application during weed generation, submerged conditions
Summary of the method: (§2)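 Alluvial soil in Wagner pots was flooded to 4 cm depth and sown with the three weeds together; pots were kept in a greenhouse at 25° C. to 30° C. At the one to two leaf stage, an emulsion formulation diluted in water to a set rate went onto the water surface; scored three weeks later.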

[5] = system: Japanese bulrush; assay: Test Example 2: herbicidal activity, application during weed generation under submerged conditions (Table 17, symbol B); type: in vivo, Japanese bulrush (Schoenoplectus juncoides); settings: AAH 320 g/ha; application during weed generation, submerged conditions
Summary of the method: as §2

[6] = system: oval-leafed pondweed; assay: Test Example 2: herbicidal activity, application during weed generation under submerged conditions (Table 17, symbol C); type: in vivo, oval-leafed pondweed (Monochoria vaginalis); settings: AAH 320 g/ha; application during weed generation, submerged conditions
Summary of the method: as §2

[7] = system: barnyard grass; assay: Test Example 3: herbicidal effect by foliage application, Wagner pot (Table 18, symbol H); type: in vivo, barnyard grass (Echinochloa crus-galli); settings: 320 g/ha
Summary of the method: (§3)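 Plants were sown in alluvial soil held under 0.1–0.5 cm standing water and grown 14 days in a greenhouse at 25–30 °C. An emulsifiable formulation, water-diluted to the set dose, was then sprayed onto the foliage, and effects were scored three weeks later using previously defined criteria.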

[8] = system: Chinese sprangletop; assay: Test Example 3: herbicidal effect by foliage application, Wagner pot (Table 18, symbol D); type: in vivo, chinese sprangletop (Leptochloa chinensis); settings: 320 g/ha
Summary of the method: as §3

[9] = system: rice flat sedge; assay: Test Example 3: herbicidal effect by foliage application, Wagner pot (Table 18, symbol E); type: in vivo, rice flat sedge (Cyperus iria); settings: 320 g/ha
Summary of the method: as §3

[10] = system: southern crabgrass; assay: Test Example 5: herbicidal effect by foliage application, plastic box (Table 20, symbol F); type: in vivo, southern crabgrass (Digitaria ciliaris); settings: foliage application, 320 g/ha, three weeks after application
Summary of the method: (§4)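 Post-emergence foliar test in sterilized diluvial soil. Compound applied as water-diluted emulsion at a predetermined rate to 14-day-old plants; evaluation at three weeks.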

[11] = system: green foxtail; assay: Test Example 5: herbicidal effect by foliage application, plastic box (Table 20, symbol G); type: in vivo, green foxtail (Setaria viridis); settings: foliage application, 320 g/ha, three weeks after application
Summary of the method: as §4

[12] = system: barnyard grass; assay: Test Example 5: herbicidal effect by foliage application, plastic box (Table 20, symbol H); type: in vivo, barnyard grass (Echinochloa crus-galli); settings: foliage application, 320 g/ha, three weeks after application
Summary of the method: as §4

[13] = system: wild oat; assay: Test Example 5: herbicidal effect by foliage application, plastic box (Table 20, symbol I); type: in vivo, wild oat (Avena fatua); settings: foliage application, 320 g/ha, three weeks after application
Summary of the method: as §4

[14] = system: blackgrass; assay: Test Example 5: herbicidal effect by foliage application, plastic box (Table 20, symbol J); type: in vivo, blackgrass (Alopecurus myosuroides); settings: foliage application, 320 g/ha, three weeks after application
Summary of the method: as §4

[15] = system: Italian ryegrass; assay: Test Example 5: herbicidal effect by foliage application, plastic box (Table 20, symbol K); type: in vivo, Italian ryegrass (Lolium multiflorum); settings: foliage application, 320 g/ha, three weeks after application
Summary of the method: as §4

[16] = system: velvetleaf; assay: Test Example 5: herbicidal effect by foliage application, plastic box (Table 20, symbol M); type: in vivo, velvetleaf (Abutilon theophrasti); settings: foliage application, 320 g/ha, three weeks after application
Summary of the method: as §4

[17] = system: lambsquarters; assay: Test Example 5: herbicidal effect by foliage application, plastic box (Table 20, symbol O); type: in vivo, lambsquarters (Chenopodium album); settings: foliage application, 320 g/ha, three weeks after application
Summary of the method: as §4

[18] = system: chickweed; assay: Test Example 5: herbicidal effect by foliage application, plastic box (Table 20, symbol P); type: in vivo, common chickweed (Stellaria media); settings: foliage application, 320 g/ha, three weeks after application
Summary of the method: as §4

[19] = system: false cleavers; assay: Test Example 5: herbicidal effect by foliage application, plastic box (Table 20, symbol Q); type: in vivo, false cleavers (Galium spurium); settings: foliage application, 320 g/ha, three weeks after application
Summary of the method: as §4

[20] = system: persian speedwell; assay: Test Example 5: herbicidal effect by foliage application, plastic box (Table 20, symbol R); type: in vivo, Persian speedwell (Veronica persica); settings: foliage application, 320 g/ha, three weeks after application
Summary of the method: as §4

CCCC(=O)Oc1c(C)nn(C)c(=O)c1-c1c(-c2ccc(F)cc2OC)sc2cc(C)ccc12 [3-056]
Herbicidal effect, A: late watergrass [1]: 3 (Herbicidal rate of 40% or more and less than 70%) | Herbicidal effect, B: Japanese bulrush [2]: 0 (Herbicidal rate of 5% or less (almost no effect)) | Herbicidal effect, C: oval-leafed pondweed [3]: 0 (Herbicidal rate of 5% or less (almost no effect)) | herbicidal effect rating, A: late watergrass [4]: 2 (Herbicidal rate of 20% or more and less than 40%) | herbicidal effect rating, B: Japanese bulrush [5]: 0 (Herbicidal rate of 5% or less (almost no effect)) | herbicidal effect rating, C: oval-leafed pondweed [6]: 0 (Herbicidal rate of 5% or less (almost no effect)) | herbicidal effect on barnyard grass (H) [7]: 3 (Herbicidal rate of 40% or more and less than 70%) | herbicidal effect on Chinese sprangletop (D) [8]: 1 (Herbicidal rate of 5% or more and less than 20%) | herbicidal effect on rice flat sedge (E) [9]: 3 (Herbicidal rate of 40% or more and less than 70%) | F: southern crabgrass, herbicidal effect grade [10]: 3 (Herbicidal rate of 40% or more and less than 70%) | G: green foxtail, herbicidal effect grade [11]: 4 (Herbicidal rate of 70% or more and less than 90%) | H: barnyard grass, herbicidal effect grade [12]: 3 (Herbicidal rate of 40% or more and less than 70%) | I: wild oat, herbicidal effect grade [13]: 3 (Herbicidal rate of 40% or more and less than 70%) | J: blackgrass, herbicidal effect grade [14]: 2 (Herbicidal rate of 20% or more and less than 40%) | K: Italian ryegrass, herbicidal effect grade [15]: 3 (Herbicidal rate of 40% or more and less than 70%) | M: velvetleaf, herbicidal effect grade [16]: 2 (Herbicidal rate of 20% or more and less than 40%) | O: lambsquarters, herbicidal effect grade [17]: 2 (Herbicidal rate of 20% or more and less than 40%) | P: chickweed, herbicidal effect grade [18]: 5 (Herbicidal rate of 90% or more (almost completely withered)) | Q: false cleavers, herbicidal effect grade [19]: 4 (Herbicidal rate of 70% or more and less than 90%) | R: persian speedwell, herbicidal effect grade [20]: 5 (Herbicidal rate of 90% or more (almost completely withered))
